What all share (type): in vivo
One experiment has as its system Ctenocephalides felis. Kind of experiment: Ctenocephalides felis; oral. The note with it: 100 ppm in citrated cattle blood, after 2 d, adult fleas, comparative example. As for the experimental part: Ctenocephalides Felis; Oral
(§1) Solvent: Dimethyl sulphoxide
To produce a suitable preparation of active compound, 1 part by weight of active compound is mixed with the stated amount of […]. Part of the concentrate is diluted with citrated cattle blood, and the desired concentration is prepared.
20 unfed adult fleas (Ctenocephalides felis) are placed into a chamber whose top and bottom ends are closed with gauze. A metal cylinder whose bottom end is closed with parafilm is placed onto the chamber. The cylinder contains the blood/active compound preparation, which can be taken up by the fleas through the parafilm membrane. The blood is warmed to 37° C., but the flea chamber is at room temperature.
After the desired period of time, the kill in % is determined. 100% means that all fleas have been killed; 0% means that none of the fleas have been killed.

The next experiment deals with Musca domestica. In words: Musca domestica test. As to conditions: 100 ppm; treated sponge; after 2 d; adult flies; comparative example. The protocol: as §1
To produce a suitable preparation of active compound, 1 part by weight of active compound is mixed with the stated amount of water, and the concentrate is diluted with water to the desired concentration.
Containers containing a sponge treated with the active compound preparation of the desired concentration are populated with adult Musca domestica.
After the desired period of time, the kill in % is determined. 100% means that all flies have been killed; 0% means that none of the flies have been killed.

Another experiment deals with Phaedon cochleariae. Kind of experiment: Phaedon test (spray treatment). As to conditions: 20 g/ha; after 7 d; comparative example. As for the experimental part: Phaedon Test (Spray Treatment)
To produce a suitable preparation of active compound, 1 part by weight of active compound is mixed with the stated amounts of solvents and emulsifier, and the concentrate is diluted with emulsifier-containing water to the desired concentration.
After the desired period of time, the activity in % is determined. 100% means that all beetle larvae have been killed, 0% means that none of the beetle larvae have been killed.
In this test, for example, the following compounds of the Preparation Examples show an activity of ≧80% at an application rate of 500 g/ha: […]

This is an account of results in US8138350B2, “N′-cyano-N-halogenalkylimidamide derivatives” (Bayer Cropscience AG, priority 2006, dated 2012).

Structures are written as SMILES.

Consider `CC(=NC#N)N(Cc1ccc(Cl)nc1)CC(F)F` [I-1, N-[(6-chloropyridin-3-yl)methyl]-N′-cyano-N-(2,2-difluoroethyl)ethanimidamide], for which, in the experiment on Ctenocephalides felis, the “Ctenocephalides felis % 2 d (kill)” value turned out to be 70%. Further, the “Musca domestica % 2 d (kill)” value in the experiment with Musca domestica amounted to 100%. Also, the “Phaedon test spray treatment % 7 d” value in the experiment with Phaedon cochleariae is 100%.
As to `CCN(Cc1ccc(Cl)nc1)C(C)=NC#N`, the “Ctenocephalides felis % 2 d (kill)” value in the experiment with Ctenocephalides felis is 30%. Moreover, the “Musca domestica % 2 d (kill)” value in the experiment on Musca domestica was 0%. In the experiment on Phaedon cochleariae, the “Phaedon test spray treatment % 7 d” value worked out at 0%.
